These results are taken from patent US11274090B2, “P300/CBP HAT inhibitors” (Constellation Pharmaceuticals, Inc., priority 2018, dated 2022).

pIC50: −log10 of the molar value.

The target of one assay is full length p300 (Homo sapiens (Human), UniProt Q09472). As to the kind of experiment: full length p300 SPA assay. It counts as biochemical. The note with it: average of at least 2 replicate titrations, read-out: FL P300 IC50. Here is the method: Reactions were initiated with 12.5 μL 2 μM biotinylated H3(1-21) peptide (New England Peptide) and run for 1 hr at RT, then quenched with 20 μL stop solution (200 mM Tris pH 8.0, 200 mM EDTA, 2M NaCl, 160 μM anacardic acid). 35 μL of the reaction volume was transferred to a 384-well streptavidin FlashPlate (PerkinElmer) using a Bravo liquid handler (Velocity 11) and incubated for 1.5 hr at RT. Plates were aspirated, washed with 95 μL wash buffer (15 mM Tris pH 8.5, 0.069 μM Brij-35), aspirated, sealed, and scintillation counts read on a Topcount (PerkinElmer). Data were analyzed in Genedata to determine inhibitor IC50 values.
The full length p300 SPA assay was run following the same protocol as p300 HAT SPA assay, but used 6 nM purified full length p300 (purchased from Active Motif) in place of the purified p300-HAT domain.

For assay [1], the target named is p300 HAT domain (residues 1287-1666) (Homo sapiens (Human), UniProt Q09472). Put plainly: p300 HAT SPA assay (scintillation proximity assay, acetylation of biotinylated H3(1-21) peptide). It counts as biochemical. The note with it: average of at least 2 replicate titrations. The method in brief:
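Purified p300 HAT domain reaction transferred to streptavidin plates to capture biotinylated H3(1-21) peptide, incubated 1.5 hr at RT, and read by scintillation proximity. IC50 values derived from concentration-response data.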

p300 HAT domain (residues 1287-1666), sequence (Q09472 1287-1666): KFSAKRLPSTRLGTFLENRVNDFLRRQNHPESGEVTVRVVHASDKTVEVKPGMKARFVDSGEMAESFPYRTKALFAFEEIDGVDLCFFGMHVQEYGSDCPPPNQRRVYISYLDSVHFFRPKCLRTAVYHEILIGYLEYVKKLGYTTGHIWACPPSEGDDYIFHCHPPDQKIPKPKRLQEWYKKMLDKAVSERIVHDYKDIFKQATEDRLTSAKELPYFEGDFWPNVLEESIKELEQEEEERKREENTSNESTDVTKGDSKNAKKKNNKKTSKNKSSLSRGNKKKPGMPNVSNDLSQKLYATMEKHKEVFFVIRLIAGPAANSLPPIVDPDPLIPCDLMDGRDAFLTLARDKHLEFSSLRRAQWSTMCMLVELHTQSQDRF
full length p300, sequence (Q09472 whole entry): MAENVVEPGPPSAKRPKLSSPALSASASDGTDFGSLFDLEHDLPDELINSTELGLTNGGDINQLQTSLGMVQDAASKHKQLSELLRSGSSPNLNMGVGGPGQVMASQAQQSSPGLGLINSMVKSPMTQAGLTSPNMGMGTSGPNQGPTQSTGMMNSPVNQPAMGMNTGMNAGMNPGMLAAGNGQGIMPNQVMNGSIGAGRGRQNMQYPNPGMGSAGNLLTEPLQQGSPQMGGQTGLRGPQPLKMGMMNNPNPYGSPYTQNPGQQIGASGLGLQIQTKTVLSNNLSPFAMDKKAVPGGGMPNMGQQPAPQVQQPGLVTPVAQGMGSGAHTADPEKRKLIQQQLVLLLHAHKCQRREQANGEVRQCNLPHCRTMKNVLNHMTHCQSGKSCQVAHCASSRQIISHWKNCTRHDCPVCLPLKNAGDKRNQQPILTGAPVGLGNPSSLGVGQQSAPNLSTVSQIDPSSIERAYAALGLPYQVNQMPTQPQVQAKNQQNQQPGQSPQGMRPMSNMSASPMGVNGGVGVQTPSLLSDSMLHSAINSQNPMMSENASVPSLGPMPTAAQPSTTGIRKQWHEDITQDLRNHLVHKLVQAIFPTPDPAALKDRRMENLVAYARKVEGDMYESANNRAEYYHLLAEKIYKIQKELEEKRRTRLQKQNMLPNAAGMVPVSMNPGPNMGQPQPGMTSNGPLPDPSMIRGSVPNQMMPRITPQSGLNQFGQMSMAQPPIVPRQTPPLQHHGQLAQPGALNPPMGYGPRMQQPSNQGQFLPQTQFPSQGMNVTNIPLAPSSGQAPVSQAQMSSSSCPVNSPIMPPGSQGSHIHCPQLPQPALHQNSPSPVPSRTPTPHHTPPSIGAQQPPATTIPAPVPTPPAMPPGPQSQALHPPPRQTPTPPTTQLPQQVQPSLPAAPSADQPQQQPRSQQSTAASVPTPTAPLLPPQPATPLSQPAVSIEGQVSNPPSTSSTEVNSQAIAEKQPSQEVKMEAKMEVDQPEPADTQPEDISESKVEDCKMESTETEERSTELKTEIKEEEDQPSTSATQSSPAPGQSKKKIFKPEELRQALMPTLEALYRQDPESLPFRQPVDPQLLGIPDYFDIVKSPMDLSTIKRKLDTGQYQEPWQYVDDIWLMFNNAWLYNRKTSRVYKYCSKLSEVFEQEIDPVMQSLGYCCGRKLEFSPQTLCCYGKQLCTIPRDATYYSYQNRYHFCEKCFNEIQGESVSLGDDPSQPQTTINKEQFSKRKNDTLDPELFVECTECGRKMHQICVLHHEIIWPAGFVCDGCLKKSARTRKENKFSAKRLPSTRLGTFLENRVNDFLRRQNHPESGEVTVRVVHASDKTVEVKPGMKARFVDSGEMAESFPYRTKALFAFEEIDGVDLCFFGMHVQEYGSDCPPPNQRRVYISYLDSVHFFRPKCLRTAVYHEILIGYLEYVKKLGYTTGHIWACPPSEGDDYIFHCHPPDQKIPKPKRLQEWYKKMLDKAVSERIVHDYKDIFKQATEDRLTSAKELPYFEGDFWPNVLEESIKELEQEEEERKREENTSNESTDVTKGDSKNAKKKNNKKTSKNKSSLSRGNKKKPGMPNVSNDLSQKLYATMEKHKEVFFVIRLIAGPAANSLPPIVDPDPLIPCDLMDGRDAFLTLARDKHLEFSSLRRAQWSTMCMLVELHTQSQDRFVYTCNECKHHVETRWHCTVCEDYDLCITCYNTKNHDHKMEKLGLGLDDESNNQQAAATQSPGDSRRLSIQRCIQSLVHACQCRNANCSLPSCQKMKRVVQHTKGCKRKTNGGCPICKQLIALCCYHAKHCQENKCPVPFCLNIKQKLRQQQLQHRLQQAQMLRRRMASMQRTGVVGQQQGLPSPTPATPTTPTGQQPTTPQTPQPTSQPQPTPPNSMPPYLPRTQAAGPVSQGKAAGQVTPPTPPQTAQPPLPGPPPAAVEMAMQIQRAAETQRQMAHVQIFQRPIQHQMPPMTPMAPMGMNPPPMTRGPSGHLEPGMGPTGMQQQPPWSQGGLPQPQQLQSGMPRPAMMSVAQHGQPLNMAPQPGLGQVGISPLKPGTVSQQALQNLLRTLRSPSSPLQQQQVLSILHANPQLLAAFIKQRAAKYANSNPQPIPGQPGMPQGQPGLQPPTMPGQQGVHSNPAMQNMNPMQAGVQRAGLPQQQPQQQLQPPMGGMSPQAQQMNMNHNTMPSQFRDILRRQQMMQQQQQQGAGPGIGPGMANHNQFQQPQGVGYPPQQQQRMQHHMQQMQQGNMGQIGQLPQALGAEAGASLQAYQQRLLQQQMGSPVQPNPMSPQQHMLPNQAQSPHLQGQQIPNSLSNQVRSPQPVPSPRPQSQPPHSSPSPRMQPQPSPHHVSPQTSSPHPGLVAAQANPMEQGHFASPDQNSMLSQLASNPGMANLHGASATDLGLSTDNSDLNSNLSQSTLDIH

Take `N#Cc1ccc(CCNC(C(=O)Nc2ccc(-c3cn[nH]c3)cn2)c2ccccc2)cc1` (single isomer, unassigned) [7 Isomer 2]: the negative-log IC50 (pIC50) (in general, the IC50 on a negative log10 scale, so that one unit is a factor of ten) on full length p300 is 7.87; in assay [1] it was 6.42. Taken in the same sequence, the figures for `Cn1cnc(-c2ccc(NC(=O)C(NCCc3ccc(C#N)cc3)c3ccccc3)nc2)c1` (single isomer, unassigned) [13 Isomer 1] were 6.56 and less than 5.30. Taken in the same sequence, the figures for `Cn1ccc(-c2ccc(NC(=O)C(NCCc3ccc(C#N)cc3)c3ccccc3)nc2)n1` (single isomer, unassigned) [14 Isomer 1] were 6.75 and less than 5.30.

Take `Cc1ccc(-c2ccc(NC(=O)C(NCC(C)c3ccc(C#N)cc3)c3ccccc3)nc2)nn1` (single isomer, unassigned) [15 Isomer 4]: the results for the negative-log IC50 (pIC50) (on full length p300; in assay [1]) were 8.82 and 7.38, respectively.

Turning to `COc1cc(NC(=O)C(NCCc2ccc(C#N)cc2)c2ccccc2)ccc1-c1cnn(C)c1` (single isomer, unassigned) [25 Isomer 1], the figures for the negative-log IC50 (pIC50) (at full length p300; in assay [1]) were 7.40 and 5.80, respectively.

As for `Cc1cn(-c2ccc(NC(=O)C(NCCc3ccc(C#N)cc3)c3ccccc3)nc2)cn1` (single isomer, unassigned) [28 Isomer 2], the pIC50 on full length p300 is 7.62; in assay [1], 5.55. As to `COC1CN(c2ccc(NC(=O)C(NCCc3ccc(C#N)cc3)c3ccccc3)nc2)C1` (single isomer, unassigned) [31 Isomer 1], the pIC50 at full length p300 is 8.59; in assay [1], 7.15. Taken in the same sequence, the figures for `COC1CN(c2ccc(NC(=O)C(NCCc3ccc(C#N)cc3)c3ccccc3)nc2)C1` (single isomer, unassigned) [31 Isomer 2] were 6.78 and less than 5.30. Taken in the same sequence, the figures for `N#Cc1ccc(CCNC(C(=O)Nc2ccc(-c3ccccc3)cn2)c2ccccc2)cc1` (single isomer, unassigned) [34 Isomer 1] were 5.14 and less than 5.30. Taken in the same sequence, the figures for `N#Cc1ccc(CCNC(C(=O)Nc2ccc(-c3ccccc3)cn2)c2ccccc2)cc1` (single isomer, unassigned) [34 Isomer 2] were 7.96 and 6.44. On to `CN1CCN(c2ccc(NC(=O)C(NCCc3ccc(C#N)cc3)c3ccccc3)nc2)CC1=O` (single isomer, unassigned) [44 Isomer 1], for which the negative-log IC50 (pIC50) at full length p300 was 6.56; in assay [1], less than 5.70. Taken in the same sequence, the figures for `CN1CCN(c2ccc(NC(=O)C(NCCc3ccc(C#N)cc3)c3ccccc3)nc2)CC1=O` (single isomer, unassigned) [44 Isomer 2] were 8.58 and 7.38. Taken in the same sequence, the figures for `CN1CCN(c2ccc(NC(=O)C(NCCc3ccc(Cl)cc3)c3ccccc3)nc2)CC1=O` (single isomer, unassigned) [45 Isomer 1] were 8.84 and 7.59.

Take `CN1CCN(c2ccc(NC(=O)C(NCCc3ccc(Cl)cc3)c3ccccc3)nc2)CC1=O` (single isomer, unassigned) [45 Isomer 2]: the pIC50 at full length p300 is 7.37; in assay [1] it was 5.99. Taken in the same sequence, the figures for `Cc1ccc(CCNC(C(=O)Nc2ccc(-c3cnn(C)c3)cn2)c2ccccc2)cc1` (single isomer, unassigned) [48 Isomer 2] were 7.50 and 5.81. Taken in the same sequence, the figures for `COC1(C)CCN(c2ccc(NC(=O)C(NCCc3ccc(C#N)cc3)c3ccccc3)nc2)CC1` (single isomer, unassigned) [53 Isomer 1] were 8.29 and 6.92.

Turning to `COC1(C)CCN(c2ccc(NC(=O)C(NCCc3ccc(C#N)cc3)c3ccccc3)nc2)CC1` (single isomer, unassigned) [53 Isomer 2], the negative logarithm of the IC50 (pIC50) at full length p300 is less than 6.00; in assay [1] it was less than 5.70. Taken in the same sequence, the figures for `Cc1ccn(-c2ccc(NC(=O)C(NCC(C)c3ccc(C#N)cc3)c3ccccc3)nc2)n1` (single isomer, unassigned) [61 Isomer 1] were 6.92 and 5.62. Taken in the same sequence, the figures for `Cc1ccn(-c2ccc(NC(=O)C(NCC(C)c3ccc(C#N)cc3)c3ccccc3)nc2)n1` (single isomer, unassigned) [61 Isomer 2] were 6.91 and less than 5.30. With `Cc1ccn(-c2ccc(NC(=O)C(NCC(C)c3ccc(C#N)cc3)c3ccccc3)nc2)n1` (single isomer, unassigned) [61 Isomer 3], the negative-log IC50 (pIC50) on full length p300 is more than 8.70; in assay [1], 7.50. Taken in the same sequence, the figures for `Cc1ccn(-c2ccc(NC(=O)C(NCC(C)c3ccc(C#N)cc3)c3ccccc3)nc2)n1` (single isomer, unassigned) [61 Isomer 4] were 7.16 and 5.87. Taken in the same sequence, the figures for `Cc1cnn(-c2ccc(NC(=O)C(NCC(C)c3ccc(C#N)cc3)c3ccccc3)nc2)c1` (single isomer, unassigned) [62 Isomer 1] were 6.65 and less than 5.70. Taken in the same sequence, the figures for `Cc1cnn(-c2ccc(NC(=O)C(NCC(C)c3ccc(C#N)cc3)c3ccccc3)nc2)c1` (single isomer, unassigned) [62 Isomer 2] were 7.78 and 6.25. As for `Cc1cnn(-c2ccc(NC(=O)C(NCC(C)c3ccc(C#N)cc3)c3ccccc3)nc2)c1` (single isomer, unassigned) [62 Isomer 3], the negative-log IC50 (pIC50) was 6.21 on full length p300 and less than 5.70 in assay [1]. In turn, `Cn1cc(-c2ccc(NC(=O)C(NCC(c3ccc(C#N)cc3)C(F)(F)F)c3ccccc3)nc2)cn1` (single isomer, unassigned) [149 Isomer 4] had a negative-log IC50 (pIC50) in assay [1] of less than 5.70. The same measure, in the same setting: under `Cc1ncc(C(C)CNC(C(=O)Nc2ccc(-c3cnn(C)c3)cn2)c2ccccc2)cn1` (single isomer, unassigned) [150 Isomer 1] stands less than 5.70; under `Cc1ncc(C(C)CNC(C(=O)Nc2ccc(-c3cnn(C)c3)cn2)c2ccccc2)cn1` (single isomer, unassigned) [150 Isomer 2], less than 5.70. On the same count and under the same terms, then `Cc1ncc(C(C)CNC(C(=O)Nc2ccc(-c3cnn(C)c3)cn2)c2ccccc2)cn1` (single isomer, unassigned) [150 Isomer 3], with less than 5.70; and `Cc1ncc(C(C)CNC(C(=O)Nc2ccc(-c3cnn(C)c3)cn2)c2ccccc2)cn1` (single isomer, unassigned) [150 Isomer 4], with 6.21; and `Cn1cc(-c2ccc3c(c2)CCCN3C(=O)[C@@H](NCCc2ccc(C#N)cc2)c2ccccc2)cn1` (single isomer, unassigned) [151 Isomer 1], with less than 5.30. On the same count and under the same terms, under `Cn1cc(-c2ccc3c(c2)CCCN3C(=O)[C@@H](NCCc2ccc(C#N)cc2)c2ccccc2)cn1` (single isomer, unassigned) [151 Isomer 2] stands less than 5.30; under `NS(=O)(=O)c1ccc(CCN[C@H](C(=O)N2CCc3ccccc32)c2ccccc2)cc1` (single isomer, unassigned) [153 Isomer 1], less than 4.22; under `NS(=O)(=O)c1ccc(CCN[C@H](C(=O)N2CCc3ccccc32)c2ccccc2)cc1` (single isomer, unassigned) [153 Isomer 2], 5.71. In assay [1], `Cc1ncc(-c2ccc(NC(=O)[C@@H](NC[C@@H](C)c3ccc(C#N)cc3)c3ccccc3)nc2)cn1` (single isomer, unassigned; isomer 1) [6 Isomer 1] had a negative-log IC50 (pIC50) of 5.77. `Cc1ncc(-c2ccc(NC(=O)[C@@H](NC[C@H](C)c3ccc(C#N)cc3)c3ccccc3)nc2)cn1` (single isomer, unassigned; isomer 2) [6 Isomer 2] had a pIC50 in assay [1] of less than 5.70. The compound `CN1CCN(c2ccc(NC(=O)[C@H](NCCc3ccc(C#N)cc3)c3ccccc3)cc2)CC1` (single isomer, unassigned; isomer 2) [18 Isomer 2] gave a pIC50 in assay [1] of less than 5.30. On the same count and under the same terms, under `Cc1ncc(-c2ccc(NC(=O)[C@H](NC[C@@H](C)c3ccc(C#N)cc3)c3ccccc3)nc2)cn1` (single isomer, unassigned; isomer 3) [6 Isomer 3] stands less than 5.70. On the same count and under the same terms, under `Cc1ncc(-c2ccc(NC(=O)[C@H](NC[C@H](C)c3ccc(C#N)cc3)c3ccccc3)nc2)cn1` (single isomer, unassigned; isomer 4) [6 Isomer 4] stands 7.68; under “(R, S)- and (S, S)-2-((2- (4- cyanophenyl)propyl)ami- no)-N-(5-(1,3-dimethyl- 1H-pyrazol-4-yl)pyridin- 2-yl)-2-phenylacetamide [113 Isomer 1]”, 5.74; under “(S,R)-, (R,S)-, (S,S)-, (R,R)-(2-((2-(4-cyanophenyl)propyl)amino)-N-(5-(1-(difluoromethyl)-1H-pyrazol-4-yl)pyridin-2-yl)-2-phenylacetamide [20 Isomer 1]”, 6.03. Compound “(S,R)-, (R,S)-, (S,S)-, (R,R)-(2-((2-(4-cyanophenyl)propyl)amino)-N-(5-(1-(difluoromethyl)-1H-pyrazol-4-yl)pyridin-2-yl)-2-phenylacetamide [20 Isomer 3]” gave a pIC50 in assay [1] of 5.79. Still for that read-out and setting: under “(S,R)-, (R,S)-, (S,S)-, (R,R)-(2-((2-(4-cyanophenyl)propyl)amino)-N-(5-(1-(difluoromethyl)-1H-pyrazol-4-yl)pyridin-2-yl)-2-phenylacetamide [20 Isomer 4]” stands less than 5.70.
